We go through five molecules from publication PMC7391683, “Two glyoxylate reductase isoforms are functionally redundant but required under high photorespiration conditions in rice” (BMC Plant Biology, 2020).

Series [1] has as its target T1, OsGR2 (Oryza sativa, UniProt Q656T5).
T1 construct: gene Os01g0574600; subunit about 37 kDa on SDS-PAGE
T1 sequence (Q656T5 45-341): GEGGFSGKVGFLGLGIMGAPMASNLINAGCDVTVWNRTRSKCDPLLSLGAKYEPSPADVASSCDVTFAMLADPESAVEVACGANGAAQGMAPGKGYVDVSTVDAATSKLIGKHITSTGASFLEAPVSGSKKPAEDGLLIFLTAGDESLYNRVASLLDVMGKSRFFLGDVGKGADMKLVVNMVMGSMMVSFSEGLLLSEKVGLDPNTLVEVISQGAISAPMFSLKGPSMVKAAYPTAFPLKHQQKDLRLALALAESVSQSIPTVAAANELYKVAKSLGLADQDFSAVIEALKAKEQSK
Nature of the series: NADH oxidation, Lineweaver-Burk. Format: biochemical. The conditions noted are these: glyoxylate fixed, pH 7.4, 30 °C. An excerpt: NADH oxidation, Lineweaver-Burk on OsGR2

Series [2] has as its target T1, OsGR2. Nature of the series: NADPH oxidation, Lineweaver-Burk. Format: biochemical. The conditions noted are these: pH 7.4, 30 °C. An excerpt:
NADPH oxidation, Lineweaver-Burk on OsGR2

For series [3], the target named is T2, OsGR1 (Oryza sativa, UniProt Q84VC8).
T2 construct: full-length, 6xHis-tag (pCold vector), E. coli Rosetta (DE3), Ni-IDA purified; subunit about 30 kDa on SDS-PAGE
T2 sequence (Q84VC8 1-293): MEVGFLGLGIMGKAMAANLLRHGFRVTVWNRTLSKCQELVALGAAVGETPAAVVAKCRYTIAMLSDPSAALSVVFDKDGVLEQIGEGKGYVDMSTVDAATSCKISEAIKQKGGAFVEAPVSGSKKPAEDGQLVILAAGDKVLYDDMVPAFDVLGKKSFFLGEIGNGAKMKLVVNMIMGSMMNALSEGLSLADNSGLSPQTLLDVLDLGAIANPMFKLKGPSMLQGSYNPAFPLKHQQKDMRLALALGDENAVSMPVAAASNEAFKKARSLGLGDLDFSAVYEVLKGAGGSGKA
Nature of the series: NAD(P)H oxidation; slopes of reciprocal plots against oxalate. Format: biochemical. The conditions noted are these: read-out: Ki(oxalate) (mM) / Glyoxylate as substrate NADPH as cofactor. From the text:
NAD(P)H oxidation; slopes of reciprocal plots against oxalate on OsGR1

Substrate in series [4]: NC(=O)C1=CN([C@@H]2O[C@H](COP(=O)(O)OP(=O)(O)OC[C@H]3O[C@@H](n4cnc5c(N)ncnc54)[C@H](O)[C@@H]3O)[C@@H](O)[C@H]2O)C=CC1
Nature of the series: NADH oxidation, Lineweaver-Burk. Format: biochemical, Oryza sativa. The following applies: glyoxylate fixed, pH 7.4, 30 °C, varied: cofactor. An excerpt: NADH oxidation, Lineweaver-Burk on OsGR1

Substrate in series [5]: O=CC(=O)O
Nature of the series: NADPH oxidation, Lineweaver-Burk. The conditions noted are these: NADPH fixed, pH 7.4, 30 °C. Format: biochemical, Oryza sativa. An excerpt: (§1) NADPH oxidation, Lineweaver-Burk on OsGR1

Substrate in series [6]: NC(=O)C1=CN([C@@H]2O[C@H](COP(=O)(O)OP(=O)(O)OC[C@H]3O[C@@H](n4cnc5c(N)ncnc54)[C@H](OP(=O)(O)O)[C@@H]3O)[C@@H](O)[C@H]2O)C=CC1
Nature of the series: NADPH oxidation, Lineweaver-Burk. Format: biochemical, Oryza sativa. The conditions noted are these: glyoxylate fixed, pH 7.4, 30 °C, varied: cofactor.
Description: as §1

For orientation: Km means the substrate concentration at which the rate is half of its maximum.

Regarding `NC(=O)C1=CN([C@@H]2O[C@H](COP(=O)(O)OP(=O)(O)OC[C@H]3O[C@@H](n4cnc5c(N)ncnc54)[C@H](O)[C@@H]3O)[C@@H](O)[C@H]2O)C=CC1` [NADH], in series [1], the Michaelis constant (Km) is 404 ± 66.5 µM.
In the case of `NC(=O)C1=CN([C@@H]2O[C@H](COP(=O)(O)OP(=O)(O)OC[C@H]3O[C@@H](n4cnc5c(N)ncnc54)[C@H](OP(=O)(O)O)[C@@H]3O)[C@@H](O)[C@H]2O)C=CC1` [NADPH], the Michaelis-Menten constant (Km) in series [2] (glyoxylate fixed) came out at 53 ± 4.6 µM.
As for `O=CC(=O)O` [glyoxylate], in series [2] (NADPH fixed), the Michaelis constant (Km) was determined as 72.1 ± 5.3 µM.
For `O=C(O)C(=O)O` [oxalate], the Ki in series [3] came to 21.2 ± 4.3 mM.

B1: OsGR1 (Oryza sativa Japonica Group) (protein)
chain: T2 sequence (Q84VC8 1-293)
notes: full-length, 6xHis-tag (pCold vector), E. coli Rosetta (DE3), Ni-IDA purified; subunit about 30 kDa on SDS-PAGE
For B1, the figures for the Km in series [4], in series [5] and in series [6] were 420.2 ± 50.5 µM, 30.4 ± 3.5 µM and 17.6 ± 3.1 µM, respectively.
